Patent US20160214983A1, “3,7-DIAZABICYCLO[3.3.1]NONANE CARBOXAMIDES AS ANTITHROMBOTIC AGENTS” (COUNCIL OF SCIENTIFIC & INDUSTRIAL RESEARCH, priority 2013, published 2016)

Key:
[1] = tested on: ferric chloride induced arterial thrombosis; assay: FeCl3 induced carotid artery thrombosis in mice; format: in vivo; conditions: for time to occlusion (TTO) of carotid artery: 1d 4 hr after oral administration, control 9.5±0.4 min
Description: Male Swiss albino mice were anesthetized byurethane (1.25 g/kg, i.p.). The carotid artery was carefully dissected and a pulsed Doppler Probe (LDF 100C, BioPac, USA) was placed around it to record the blood flow velocity and patency of the blood vessels. The carotid artery thrombosis was induced by FeCl3 as follows: a square (1×0.5 mm) of Whatman Chromatography paper was immersed in 10% FeCl3 solution for 5 min and placed on the carotid artery as described earlier. (Kurz K D, et al., Thromb Res 1990; 60(4):269-80; Surin W R et al J Pharmacol Toxicol Methods. 2010; 61(3):287-91) Thrombosis was monitored as the reduction in carotid artery blood flow. The time at which the blood-flow velocity was decreased to zero was recorded as the time to occlusion (TTO) of the carotid artery.

human platelets [2] = assay: Arachidonic acid induced platelet aggregation (COX pathway); format: cell-based
human platelets [3] = assay: Ristocetin induced platelet aggregation; format: cell-based; conditions: up to 300 μM
human platelets [4] = assay: ADP induced platelet aggregation; format: cell-based; conditions: up to 300 μM
[5] = tested on: collagen plus epinephrine induced pulmonary thromboembolism; assay: Collagen-epinephrine induced pulmonary thromboembolism in mice; format: in vivo; conditions: for inhibition in vivo at 30 µM, 30 µmol/kg: Mus musculus, po, 1 h, read-out: Protection (%)
Description: To assess the antithrombotic efficacy of compounds, mice were grouped into vehicle, aspirin and compound treated groups, and each group included ten animals. Pulmonary thromboembolism was induced by injecting a mixture of collagen (150 μg/ml) and adrenaline (50 μg/ml) into the tail vein to achieve final doses of collagen (1.5 mg/kg) and adrenaline (0.5 mg/kg) to induce hind limb paralysis or death.^11, 12 Number of test animals killed or paralyzed were evaluated (death/paralysis were employed as endpoint to evaluate antithrombotic agents). The percent protection was calculated by taking the ratio of number of test animals killed or paralyzed to that of total tested animals. Results have been reported as percentage protection, which represents protection against collagen and epinephrine induced thromboembolism and expressed as;
Percent Protection=[1−(Ptest/Pcontrol)]×100
Where, Ptest is the number of animals paralyzed/dead in test compound-treated group, and Pcontrol is the total number of animals paralyzed/dead in vehicle treated group. The percent protection refers to the number of animals in compound treated group that were prevented from paralysis/death.

human platelets [6] = assay: TRAP (thrombin mimetic SFLLRN) induced platelet aggregation; format: cell-based; conditions: up to 300 μM
[7] = Tail bleeding time in mice
human plasma = assay: Coagulability of blood by TT, PT and aPTT in human plasma
human platelets [8] = assay: U46619 (thromboxane receptor agonist) induced platelet aggregation; format: cell-based
human platelets [9] = assay: Collagen related peptide (CRP-XL) induced platelet aggregation; format: cell-based; conditions: up to 300 μM
human platelets [10] = assay: Collagen induced platelet aggregation in human platelets (in vitro); format: cell-based; conditions: Homo sapiens, Platelet, compound concentration 30 μM, n = 3

COC(=O)[C@H](c1ccccc1Cl)N1CCc2sccc2C1 [Clopidogrel, reference compound]
time to occlusion (TTO) of carotid artery [1]: ≤ 23 ± 0.9 min

O=C([C@@H]1CCC(=O)N1Cc1ccccc1Br)N1CC2CC(CN(Cc3ccccc3)C2)C1 [Compound 1d, 5-(7-Benzyl-3,7-diaza-bicyclo[3.3.1]nonane-3-carbonyl)-1-(2-bromo-benzyl)-pyrrolidin-2-one]
inhibition of arachidonic acid induced platelet aggregation (human platelets [2]; 30 μM): did not exhibit any inhibition
attenuation of arachidonic acid induced platelet aggregation (human platelets [2]; 300 μM and 500 μM): ≤ 50%
effect against Ristocetin induced platelet aggregation (human platelets [3]): did not exhibit any significant effect
effect against ADP induced platelet aggregation (human platelets [4]): did not exhibit any significant effect
prolongation of time to occlusion vs control ([1]; 4 hr after oral administration): 2.2 fold
time to occlusion (TTO) of carotid artery [1]: 19.2 ± 0.9 min
inhibition in vivo at 30 µM, 30 µmol/kg [5]: 40%
protection in collagen-epinephrine induced pulmonary thromboembolism ([5]; mice, after 4 hours (p.o.), 30 μM/kg): ≤ 60%
effect against TRAP induced platelet aggregation (human platelets [6]): did not exhibit any significant effect
effect on bleeding tendency ([7]; 1 hr after oral dosing, compared against aspirin and clopidogrel): mild effect
bleeding time ([7]; after 4 hrs (oral), method doses aspirin 170 μM/kg, Clopidogrel 70 μM/kg): 8.4 min
coagulability of blood as assessed by TT, PT and aPTT (human plasma): did not alter the coagulability of blood
inhibition at 30 µM (human platelets [8]): 75.5 ± 6%
effect against CRP-XL induced platelet aggregation (human platelets [9]): did not exhibit any significant effect

Cc1ccc(CN2C(=O)CC[C@H]2C(=O)N2CC3CC(CN(Cc4ccc(Cl)cc4)C3)C2)cc1 [Compound 1w, (5S)-5-(7-(4-chlorobenzyl)-3,7-diazabicyclo[3.3.1]nonane-3-carbonyl)-1-(4-methylbenzyl)pyrrolidin-2-one]
inhibition in vivo at 30 µM, 30 µmol/kg [5]: 35%
inhibition at 30 µM (human platelets [10]): 57 to 86%

CC(C)[C@H](NC(=O)OCc1ccccc1)C(=O)N1CC2CC(CN(Cc3ccccc3)C2)C1 [Compound 1x, Benzyl(2S)-1-(7-benzyl-3,7-diazabicyclo[3.3.1]nonan-3-yl)-3-methyl-1-oxobutan-2-yl carbamate]
inhibition in vivo at 30 µM, 30 µmol/kg [5]: 20%
inhibition at 30 µM (human platelets [10]): 18 ± 4%

O=C(N[C@@H](Cc1ccccc1)C(=O)N1CC2CC(CN(Cc3ccccc3)C2)C1)OCc1ccccc1 [Compound 1y, Benzyl(2S)-1-(7-benzyl-3,7-diazabicyclo[3.3.1]nonan-3-yl)-1-oxo-3-phenylpropan-2-yl carbamate]
inhibition in vivo at 30 µM, 30 µmol/kg [5]: 55%
inhibition at 30 µM (human platelets [10]): 22 ± 5%

CC(C)C[C@H](NC(=O)OCc1ccccc1)C(=O)N1CC2CC(CN(Cc3ccccc3)C2)C1 [Compound 1z, Benzyl(2S)-1-(7-benzyl-3,7-diazabicyclo[3.3.1]nonan-3-yl)-4-methyl-1-oxopentan-2-ylcarbamate]
inhibition in vivo at 30 µM, 30 µmol/kg [5]: 40%
inhibition at 30 µM (human platelets [10]): 12 ± 10%
